What all share (assay type): physicochemical
Data set [1] is described as follows: moisture uptake (weight change versus relative humidity). The following applies: 60% RH. An excerpt:
Weight change (y-axis) versus relative humidity (x-axis) is shown, wherein adsorption is shown by -∘-, and desorption by -∘-.
For instance, Comparative Example 1 has about 10% change in weight at 60% RH (FIG. 1), whereas Example 1 has about 2-2.5% change in weight at the same humidity level (FIG. 2). On average, the mono-lysine salt or solvate thereof has better stability over the bis-lysine form (FIG. 4).

Data set [2] in a line: physical stability under stressed storage conditions (area percent). The following applies: for degradation on storage: 2-week stability data.
Data set [3] is described as follows: aqueous solubility of the salts and solvates. The following applies: water. The procedure: The obtained solvate of the mono-lysine salt of ((2R,3R)-3-(4-(4-cyanophenyl)thiazol-2-yl)-2-(2,4-difluorophenyl)-1-(1H-1,2,4-triazol-1-yl)butan-2-yloxy)methyl dihydrogen phosphate is scaled up and fully characterized. Physical-chemical properties including solubility, stability, moisture uptake, compaction, etc., are evaluated and compared to the bis-lysine salt of Comparative Example 1.
Also, Example 1 retains a high aqueous solubility (>200 mg/mL) similar to that of the bis-lysine salt of Comparative Example 1.

Structures can show the parent of a compound that is named as a salt.

The term Solubility denotes how much of the substance goes into solution per volume. Usually solubility stands for the dissolved amount per volume that the medium holds.

Take `C[C@@H](c1nc(-c2ccc(C#N)cc2)cs1)[C@@](Cn1cncn1)(OCOP(=O)(O)O)c1ccc(F)cc1F.NCCCC[C@H](N)C(=O)O.NCCCC[C@H](N)C(=O)O` [Comparative Example 1, Bis-lysine salt of (2R,3R)-3-[4-(4-cyanophenyl)thiazol-2-yl]-2-(2,4-difluorophenyl)-1-(1H-1,2,4-triazol-1-yl)-2-[(dihydrogenphosphonoxy)methoxy]butane, reference compound]: the “change in weight (moisture uptake)” value in data set [1] is listed as “about 10%”; in data set [1] (listed as bis-lysine monoethanolate) it was 10%.

For `C[C@@H](c1nc(-c2ccc(C#N)cc2)cs1)[C@@](Cn1cncn1)(OCOP(=O)(O)O)c1ccc(F)cc1F` [Example 1, ((2R,3R)-3-(4-(4-cyanophenyl)thiazol-2-yl)-2-(2,4-difluorophenyl)-1-(1H-1,2,4-triazol-1-yl)butan-2-yloxy)methyl dihydrogen phosphate mono-lysine salt ethanol solvate], the degradation on storage result in data set [2] (40° C./75% RH (open and closed)) is listed as “minimal degradation”; in data set [2] (any other storage conditions), “No degradation”. The “Area Percent (AP as phosphonoxoxymethyl ether derivative of ravuconazole)” value (shortened to “Area Percent”) stood at 98.47 Area Percent in data set [2] (5° C., 1 Week); 99.60 Area Percent in data set [2] (5° C., 2 Weeks); 99.59 Area Percent in data set [2] (5° C., 5 Days); 99.66 Area Percent in data set [2] (25° C./60% RH (Closed), 1 Week); 99.21 Area Percent in data set [2] (25° C./60% RH (Closed), 2 Weeks); 99.59 Area Percent in data set [2] (25° C./60% RH (Closed), 5 Days). Also, the “Area Percent” value in data set [2] (25° C./60% RH (Open), 1 Week) was determined as 99.65 Area Percent; in data set [2] (25° C./60% RH (Open), 2 Weeks), 99.42 Area Percent; in data set [2] (25° C./60% RH (Open), 5 Days), 99.61 Area Percent; in data set [2] (40° C./75% RH (Closed), 1 Week), 99.05 Area Percent; in data set [2] (40° C./75% RH (Closed), 2 Weeks), 97.90 Area Percent; in data set [2] (40° C./75% RH (Closed), 5 Days) it was 99.20 Area Percent. For the same compound, the “Area Percent” value in data set [2] (40° C./75% RH (Open), 1 Week) stood at 98.76 Area Percent; in data set [2] (40° C./75% RH (Open), 2 Weeks) it was 96.90 Area Percent; in data set [2] (40° C./75% RH (Open), 5 Days), 98.97 Area Percent; in data set [2] (60° C., 1 Week), 99.70 Area Percent; in data set [2] (60° C., 2 Weeks) it was 99.73 Area Percent; in data set [2] (60° C., 5 Days), 99.70 Area Percent. In addition, the “Area Percent” value was 99.64 Area Percent in data set [2] (HIL/UV (Controlled), 1 Week); 99.68 Area Percent in data set [2] (HIL/UV (Controlled), 2 Weeks); 99.60 Area Percent in data set [2] (HIL/UV (Controlled), 5 Days); 98.68 Area Percent in data set [2] (HIL/UV (Exposed), 1 Week); 99.68 Area Percent in data set [2] (HIL/UV (Exposed), 2 Weeks); 99.61 Area Percent in data set [2] (HIL/UV (Exposed), 5 Days). For the same compound, the “Area Percent” value in data set [2] (Initial) stood at 99.56 Area Percent. Moreover, the Solubility in data set [3] is greater than 200 mg/mL. Moreover, the solubility in data set [3] is greater than 200 mg/mL. The “change in weight (moisture uptake)” value is 2-2.5% in data set [1] and 2-3% in data set [1] (listed as mono-lysine monoethanolate). Besides, in data set [1], the “weight change for adsorption” value is less than 2.5%. Besides, in data set [1], the “weight change for desorption” value is less than 5%.

Regarding `CC(C)O.C[C@@H](c1nc(-c2ccc(C#N)cc2)cs1)[C@@](Cn1cncn1)(OCOP(=O)(O)O)c1ccc(F)cc1F.NCCCC[C@H](N)C(=O)O` [Example 5, ((2R,3R)-3-(4-(4-cyanophenyl)thiazol-2-yl)-2-(2,4-difluorophenyl)-1-(1H-1,2,4-triazol-1-yl)butan-2-yloxy)methyl dihydrogen phosphate mono-lysine salt isopropyl alcohol solvate], the “weight change for adsorption” value in data set [1] is given as less than 0.5%.

These data come from patent US20060264406A1, “Mono-lysine salts of azole compounds” (Eisai Co., Ltd., priority 2005, published 2006).
